The experiment has as its target T1, KCNT1 (KNa1.1, Slack) (Homo sapiens, UniProt Q5JUK3).
T1 construct: expressed in transfected cells; host or cells: HEK-TREX (tetracycline-inducible HEK cell line)
T1 sequence (Q5JUK3 1-1230): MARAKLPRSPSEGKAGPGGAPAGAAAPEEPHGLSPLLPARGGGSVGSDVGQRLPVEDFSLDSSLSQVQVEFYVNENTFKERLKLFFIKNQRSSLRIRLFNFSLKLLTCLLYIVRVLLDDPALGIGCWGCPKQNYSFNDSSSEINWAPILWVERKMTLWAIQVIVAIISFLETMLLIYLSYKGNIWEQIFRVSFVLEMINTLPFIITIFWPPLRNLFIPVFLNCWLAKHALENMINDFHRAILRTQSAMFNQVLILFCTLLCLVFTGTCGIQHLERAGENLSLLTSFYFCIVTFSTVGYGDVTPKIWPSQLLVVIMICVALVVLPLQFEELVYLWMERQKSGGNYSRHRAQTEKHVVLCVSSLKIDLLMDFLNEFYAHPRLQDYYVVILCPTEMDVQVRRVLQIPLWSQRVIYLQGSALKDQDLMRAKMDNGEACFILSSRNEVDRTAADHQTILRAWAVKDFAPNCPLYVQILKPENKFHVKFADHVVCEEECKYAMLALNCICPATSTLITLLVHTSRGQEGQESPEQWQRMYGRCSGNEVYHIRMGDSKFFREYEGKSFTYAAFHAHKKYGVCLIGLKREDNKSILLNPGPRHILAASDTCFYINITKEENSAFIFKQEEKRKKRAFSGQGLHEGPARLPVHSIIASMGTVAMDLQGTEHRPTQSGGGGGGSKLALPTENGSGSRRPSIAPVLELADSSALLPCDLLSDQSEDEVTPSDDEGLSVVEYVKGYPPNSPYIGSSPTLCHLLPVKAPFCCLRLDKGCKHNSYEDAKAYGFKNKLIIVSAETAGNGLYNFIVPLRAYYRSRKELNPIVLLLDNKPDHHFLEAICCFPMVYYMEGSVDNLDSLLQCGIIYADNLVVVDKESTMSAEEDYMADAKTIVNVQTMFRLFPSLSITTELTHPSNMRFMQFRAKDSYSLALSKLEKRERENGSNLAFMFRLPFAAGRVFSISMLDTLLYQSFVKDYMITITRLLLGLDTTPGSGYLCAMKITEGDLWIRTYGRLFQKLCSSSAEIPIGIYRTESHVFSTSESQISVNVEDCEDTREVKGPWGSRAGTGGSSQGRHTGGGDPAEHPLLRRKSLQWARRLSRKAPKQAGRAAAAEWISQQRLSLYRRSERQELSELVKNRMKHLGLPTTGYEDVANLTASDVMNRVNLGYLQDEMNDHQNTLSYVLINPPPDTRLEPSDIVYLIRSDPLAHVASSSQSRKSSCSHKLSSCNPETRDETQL
Nature of the experiment: KCNT1 patch clamp assay (SyncroPatch 384PE automated patch clamp). The format is cell-based. The note with it: tetracycline inducible cell line (HEK-TREX); perforated patch mode; step from -80 mV to 0 mV; room temperature; read-out: KCNT1-WT IC50. How it is done: Inhibition of KCNT1 (KNa1.1, Slack) was evaluated using a tetracycline inducible cell line (HEK-TREX). Currents were recorded using the SyncroPatch 384PE automated, patch clamp system. Pulse generation and data collection were performed with PatchController384 V1.3.0 and DataController384 V1.2.1 (Nanion Technologies). The access resistance and apparent membrane capacitance were estimated using built-in protocols. Current were recorded in perforated patch mode (10 μM escin) from a population of cells. The cells were lifted, triturated, and resuspended at 800,000 cells/ml. The cells were allowed to recover in the cell hotel prior to experimentation. Currents were recorded at room temperature. The external solution contained the following (in mM): NaCl 105, NMDG 40, KCl 4, MgCl2 1, CaCl2 5 and HEPES 10 (pH=7.4, Osmolarity ˜300 mOsm). The extracellular solution was used as the wash, reference and compound delivery solution. The internal solution contained the following (in mM): NaCl 70, KF 70, KCl 10, EGTA 5, HEPES 5 and Escin 0.01 (pH=7.2, Osmolarity ˜295 mOsm). Escin is made at a 5 mM stock in water, aliquoted, and stored at −20° C. The compound plate was created at 2× concentrated in the extracellular solution. The compound was diluted to 1:2 when added to the recording well. The amount of DMSO in the extracellular solution was held constant at the level used for the highest tested concentration. A holding potential of −80 mV with a 100 ms step to 0 mV was used. Mean current was measured during the step to 0 mV. […] The average mean current from 3 sweeps was calculated and the % inhibition of each compound was calculated. The % Inhibition as a function of the compound concentration was fit with a Hill equation to derive IC50, slope, min and max parameters. If KCNT1 inhibition was less than 50% at the highest tested concentration or if an IC50 could not be calculated, then a percent inhibition was reported in place of the IC50.
In this table, “A” indicates IC50 of less than or equal to 1 μM; “B” indicates inhibition of between 1 μM to 20 μM; and “C” indicates inhibition of greater than or equal to 20 μM.
(In patch-clamp work, channel activity is measured electrically.)

Here are results for 28 compounds from US20230219921A1, “KCNT1 INHIBITORS AND METHODS OF USE” (Praxis Precision Medicines, Inc., priority 2020, published 2023).

What is called IC50 is the concentration at which inhibition is half-maximal.

Take `CNS(=O)(=O)c1ccc(C(=O)NCc2ccc(N3CCCC3)cc2)s1` [Compound 30, 5-(N-methylsulfamoyl)-N-(4-(pyrrolidin-1-yl)benzyl)thiophene-2-carboxamide]: the IC50 was not below 20000 nM.
To `CNS(=O)(=O)c1ccc(C(=O)NCc2ccc(C(C)(C)C)cc2)s1` [Compound 28, N-(4-(tert-butyl)benzyl)-5-(N-methylsulfamoyl)thiophene-2-carboxamide] belongs not above 1000 nM; to `Cc1cc(C(F)F)ccc1CNC(=O)c1ccc(S(C)(=O)=O)s1` [Compound 53, N-(4-(difluoromethyl)-2-methylbenzyl)-5-(methylsulfonyl)thiophene-2-carboxamide], not above 1000 nM.
`CNS(=O)(=O)c1ccc(C(=O)NCc2ccc(Cl)cc2C)s1` [Compound 9, N-(4-chloro-2-methylbenzyl)-5-(N-methylsulfamoyl)thiophene-2-carboxamide]: the IC50 was not above 1000 nM.
Then `CNS(=O)(=O)c1ccc(C(=O)NCc2ccc(C(C)(C)C#N)cc2)s1` [Compound 38, N-(4-(2-cyanopropan-2-yl)benzyl)-5-(N-methylsulfamoyl)thiophene-2-carboxamide], with 1000 to 20000 nM; and `CNS(=O)(=O)c1ccc(C(=O)N[C@@H](C)c2ccc(Cl)cc2)s1` [Compound 5, (S)—N-(1-(4-chlorophenyl)ethyl)-5-(N-methylsulfamoyl)thiophene-2-carboxamide], with not above 1000 nM; and `CNS(=O)(=O)c1ccc(C(=O)NCc2ccc(OCC(F)(F)F)cc2)s1` [Compound 35, 5-(N-methylsulfamoyl)-N-(4-(2,2,2-trifluoroethoxy)benzyl)thiophene-2-carboxamide], with 1000 to 20000 nM.
To `CC(C)Oc1ccc(CNC(=O)c2ccc(S(C)(=O)=O)s2)cc1` [Compound 25, N-(4-isopropoxybenzyl)-5-(methylsulfonyl)thiophene-2-carboxamide] belongs not below 20000 nM; to `CNS(=O)(=O)c1ccc(C(=O)NCc2ccc(C(F)(F)F)cc2F)s1` [Compound 43, N-(2-fluoro-4-(trifluoromethyl)benzyl)-5-(N-methylsulfamoyl)thiophene-2-carboxamide], not above 1000 nM.
For `CNS(=O)(=O)c1ccc(C(=O)NCc2ccc(OC(C)C)cc2)s1` [Compound 27, N-(4-isopropoxybenzyl)-5-(N-methylsulfamoyl)thiophene-2-carboxamide], the IC50 is not below 20000 nM.
To `CS(=O)(=O)c1ccc(C(=O)NCc2ccc(C3CC3)cc2)s1` [Compound 31, N-(4-cyclopropylbenzyl)-5-(methylsulfonyl)thiophene-2-carboxamide] belongs not above 1000 nM.
To `CCS(=O)(=O)c1ccc(C(=O)NCc2ccc(C(F)(F)F)cc2)s1` [Compound 49, 5-(ethylsulfonyl)-N-(4-(trifluoromethyl)benzyl)thiophene-2-carboxamide] belongs not above 1000 nM.
Regarding `CS(=O)(=O)c1ccc(C(=O)NCc2ccc(Cl)cc2Cl)s1` [Compound 6, N-(2,4-dichlorobenzyl)-5-(methylsulfonyl)thiophene-2-carboxamide], the IC50 is not above 1000 nM.
Then `CC(C)(C#N)c1ccc(CNC(=O)c2ccc(S(C)(=O)=O)s2)cc1` [Compound 39, N-(4-(2-cyanopropan-2-yl)benzyl)-5-(methylsulfonyl)thiophene-2-carboxamide], with 1000 to 20000 nM; and `CNS(=O)(=O)c1ccc(C(=O)NCc2ccc(Cl)cc2Br)s1` [Compound 11, N-(2-bromo-4-chlorobenzyl)-5-(N-methylsulfamoyl)thiophene-2-carboxamide], with not above 1000 nM.
`CNS(=O)(=O)c1ccc(C(=O)NCc2cccc(Cl)c2)s1` [Compound 18, N-(3-chlorobenzyl)-5-(N-methylsulfamoyl)thiophene-2-carboxamide]: the 50% inhibitory concentration (IC50) was not above 1000 nM.
To `CNS(=O)(=O)c1ccc(C(=O)NCc2ccc(C)cc2)s1` [Compound 22, N-(4-methylbenzyl)-5-(N-methylsulfamoyl)thiophene-2-carboxamide] belongs not above 1000 nM; to `CNS(=O)(=O)c1ccc(C(=O)N[C@@H](C)c2ccc(Cl)cc2Cl)s1` [Compound 2, (S)—N-(1-(2,4-dichlorophenyl)ethyl)-5-(N-methylsulfamoyl)thiophene-2-carboxamide], not above 1000 nM.
To `CNS(=O)(=O)c1ccc(C(=O)NCc2ccc(Cl)cc2C2CC2)s1` [Compound 12, N-(4-chloro-2-cyclopropylbenzyl)-5-(N-methylsulfamoyl)thiophene-2-carboxamide] belongs not above 1000 nM; to `CNS(=O)(=O)c1ccc(C(=O)NCc2ccc(Cl)cc2OC)s1` [Compound 13, N-(4-chloro-2-methoxybenzyl)-5-(N-methylsulfamoyl)thiophene-2-carboxamide], not above 1000 nM; to `CC(C)S(=O)(=O)c1ccc(C(=O)NCc2ccc(C(F)(F)F)cc2)s1` [Compound 50, 5-(isopropylsulfonyl)-N-(4-(trifluoromethyl)benzyl)thiophene-2-carboxamide], not above 1000 nM.
To `CS(=O)(=O)c1ccc(C(=O)NCc2ccc(C(F)(F)F)cc2F)s1` [Compound 42, N-(2-fluoro-4-(trifluoromethyl)benzyl)-5-(methylsulfonyl)thiophene-2-carboxamide] belongs not above 1000 nM; to `CNS(=O)(=O)c1ccc(C(=O)NCc2ccc(Cl)cc2O)s1` [Compound 14, N-(4-chloro-2-hydroxybenzyl)-5-(N-methylsulfamoyl)thiophene-2-carboxamide], not above 1000 nM; to `Cc1cc(C(F)(F)F)ccc1CNC(=O)c1ccc(S(C)(=O)=O)s1` [Compound 44, N-(2-methyl-4-(trifluoromethyl)benzyl)-5-(methylsulfonyl)thiophene-2-carboxamide], not above 1000 nM.
`CNS(=O)(=O)c1ccc(C(=O)N[C@H](C)c2ccc(Cl)cc2Cl)s1` [Compound 1, (R)—N-(1-(2,4-dichlorophenyl)ethyl)-5-(N-methylsulfamoyl)thiophene-2-carboxamide]: the IC50 lay in the range of 1000 to 20000 nM.
To `CCS(=O)(=O)c1ccc(C(=O)NCc2ccc(Cl)cc2Cl)s1` [Compound 16, N-(2,4-dichlorobenzyl)-5-(ethylsulfonyl)thiophene-2-carboxamide] belongs not above 1000 nM.
Take `O=C(NCc1ccc(C(F)(F)F)cc1)c1ccc(S(=O)(=O)C2CC2)s1` [Compound 47, 5-(cyclopropylsulfonyl)-N-(4-(trifluoromethyl)benzyl)thiophene-2-carboxamide]: the IC50 was not above 1000 nM.
Then `COCCS(=O)(=O)c1ccc(C(=O)NCc2ccc(C(F)(F)F)cc2)s1` [Compound 52, 5-((2-methoxyethyl)sulfonyl)-N-(4-(trifluoromethyl)benzyl)thiophene-2-carboxamide], with not above 1000 nM.
